Experimental data reported in patent US20250122203A1, “ADENOSINE RECEPTOR ANTAGONISTS” (Crossignal Therapeutics, Inc., priority 2021, published 2025).

Tests used:
[1] = target: human adenosine A2a receptor (Homo sapiens, UniProt P29274); experiment: Adenosine A2a Receptor Whole Cell Cyclic AMP Assay; settings: HEK293 cells stably expressing human A2a; for A2a @ 100 μM Adenosine (cAMP IC50): in the presence of 100 μM adenosine; for A2a @ 1 μM Adenosine (cAMP IC50): in the presence of 1 μM adenosine
[2] = target: T1, human adenosine A2b receptor (Homo sapiens, UniProt P29275); experiment: Adenosine A2b Receptor Whole Cell Cyclic AMP Assay; settings: HEK293 cells transfected with human A2b; in the presence of 10 μM adenosine
T1 sequence (P29275 1-332): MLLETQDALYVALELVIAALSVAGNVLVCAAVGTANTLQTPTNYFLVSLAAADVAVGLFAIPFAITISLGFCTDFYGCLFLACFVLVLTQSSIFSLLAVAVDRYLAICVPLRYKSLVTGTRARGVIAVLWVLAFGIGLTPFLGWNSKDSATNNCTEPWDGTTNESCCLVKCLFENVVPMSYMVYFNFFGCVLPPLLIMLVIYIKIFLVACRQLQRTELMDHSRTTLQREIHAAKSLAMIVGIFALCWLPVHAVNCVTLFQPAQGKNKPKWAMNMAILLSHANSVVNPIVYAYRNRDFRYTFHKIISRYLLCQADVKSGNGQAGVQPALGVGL

Chain of human adenosine A2a receptor (P29274 whole entry): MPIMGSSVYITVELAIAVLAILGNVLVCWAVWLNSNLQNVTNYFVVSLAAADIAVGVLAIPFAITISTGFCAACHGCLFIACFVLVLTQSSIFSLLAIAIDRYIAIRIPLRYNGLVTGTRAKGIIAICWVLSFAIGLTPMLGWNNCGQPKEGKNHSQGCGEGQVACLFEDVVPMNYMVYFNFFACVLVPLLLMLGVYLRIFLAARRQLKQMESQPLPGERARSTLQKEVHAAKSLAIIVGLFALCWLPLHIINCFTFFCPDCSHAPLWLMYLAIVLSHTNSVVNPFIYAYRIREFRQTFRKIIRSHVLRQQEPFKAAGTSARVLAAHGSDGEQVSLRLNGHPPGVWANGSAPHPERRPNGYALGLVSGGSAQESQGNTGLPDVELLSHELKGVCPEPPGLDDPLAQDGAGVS

| Compound | A2a @ 100 μM Adenosine (cAMP IC50) [1] | A2a @ 1 μM Adenosine (cAMP IC50) [1] | further results |
| --- | --- | --- | --- |
| Cc1ccnc2ccc(-c3c(-c4ccc(F)cc4)nc(N)c4nnnn34)cc12 [1-6, 6-(4-fluorophenyl)-5-(4-methylquinolin-6-yl)tetrazolo[1,5-a]pyrazin-8-amine] | ++ (partial) | – | – |
| Nc1nc(-c2ccc(F)cc2)c(-c2ccc3ncoc3c2)n2nnnc12 [1-10, 5-(benzo[d]oxazol-6-yl)-6-(4-fluorophenyl)tetrazolo[1,5-a]pyrazin-8-amine] | + (partial) | – | – |
| Nc1nc(-c2ccc(F)cc2)c(-c2ccc3ncc(Cl)n3c2)n2nnnc12 [1-23, 5-(3-chloroimidazo[1,2-a]pyridin-6-yl)-6-(4-fluorophenyl)tetrazolo[1,5-a]pyrazin-8-amine] | ++ (partial) | – | – |
| Cc1cc(-c2c(-c3ccc(F)cc3)nc(N)n3nnnc23)cc(C)n1 [1-28, 8-(2,6-dimethylpyridin-4-yl)-7-(4-fluorophenyl)tetrazolo[1,5-c]pyrimidin-5-amine] | – | – | A2b @ 10 μM Adenosine (cAMP IC50) [2]: + (partial) |
| Cc1ccnc2ccc(-c3c(-c4ccc(Cl)cc4)nc(N)c4nnnn34)cc12 [1-39, 6-(4-chlorophenyl)-5-(4-methylquinolin-6-yl)tetrazolo[1,5-a]pyrazin-8-amine] | – | +++ (partial) | – |
| Cc1ccnc2ccc(-c3c(-c4ccc(C(=O)N(C)C)cc4)nc(N)c4nnnn34)cc12 [1-40, 4-(8-amino-5-(4-methylquinolin-6-yl)tetrazolo[1,5-a]pyrazin-6-yl)-N,N-dimethylbenzamide] | – | +++ (partial) | – |
| Cc1ccnc2ccc(-c3c(-c4cccc(Cl)c4)nc(N)c4nnnn34)cc12 [1-50, 6-(3-chlorophenyl)-5-(4-methylquinolin-6-yl)tetrazolo[1,5-a]pyrazin-8-amine] | – | +++ (partial) | – |
